Test results: US20120095036A1, “NOVEL SUBSTITUTED INDAZOLE AND AZA-INDAZOLE DERIVATIVES AS GAMMA SECRETASE MODULATORS” (priority 2009, published 2012)

What was measured:
Assay type in all cases: cell-based
Aβ42 [1] = assay: Method 1: Aβ42 sandwich ELISA on media of SKNBE2 cells carrying APP 695 wild type (γ-secretase-modulating activity); conditions: SKNBE2 cells APP 695 wild type, 18 hours
Method: (§1) Screening was carried out using SKNBE2 cells carrying the APP 695—wild type, grown in Dulbecco's Modified Eagle's Medium/Nutrient mixture F-12 (DMEM/NUT-mix F-12) (HAM) provided by Gibco (cat no. 31330-38) containing 5% Serum/Fe supplemented with 1% non-essential amino acids. Cells were grown to near confluency.
(§2) The screening was performed using the assay as described in Citron et al (1997) Nature Medicine 3: 67. Briefly, cells were plated in a 96-well plate at about 10^5 cells/ml one day prior to addition of compounds. Compounds were added to the cells in Ultraculture (Lonza, BE12-725F) supplemented with 1% glutamine (Invitrogen, 25030-024) for 18 hours. The media were assayed by two sandwich ELISAs, for Aβ42 and Aβtotal. Toxicity of the compounds was assayed by WST-1 cell proliferation reagent (Roche, 1 644 807) according to the manufacturer's protocol.
To quantify the amount of Aβ42 in the cell supernatant, commercially available Enzyme-Linked-Immunosorbent-Assay (ELISA) kits were used (Innotest® β-Amyloid(1-42), Innogenetics N.V., Ghent, Belgium). The Aβ42 ELISA was performed essentially according to the manufacturer's protocol. Briefly, the standards (dilutions of synthetic A131-42) were prepared in polypropylene Eppendorf with final concentrations of 8000 down to […] (½ dilution step). Samples, standards and blanks (100 μl) were added to the anti-Aβ42-coated plate supplied with the kit (the capture antibody selectively recognizes the C-terminal end of the antigen). The plate was allowed to incubate 3 h at 25° C. in order to allow formation of the antibody-amyloid complex. Following this incubation and subsequent wash steps a selective anti-A13-antibody conjugate (biotinylated 3D6) was added and incubated for a minimum of 1 hour in order to allow formation of the antibody-Amyloid-antibody-complex. After incubation and appropriate wash steps, a Streptavidine-Peroxidase-Conjugate was added, followed 30 minutes later by an addition of 3,3′,5,5′-tetramethylbenzidine (TMB)/peroxide mixture, resulting in the conversion of the substrate into a coloured product. This reaction was stopped by the addition of sulfuric acid (0.9 N) and the colour intensity was measured by means of photometry with an ELISA-reader with a 450 nm filter.
(§3) To obtain the values reported in Table 3a, the sigmoidal dose response curves were analysed by computerised curve-fitting, with percent of inhibition plotted against compound concentration. A 4-parameter equation (model 205) in XLfit was used to determine the IC50. The top and the bottom of the curve were fixed to 100 and 0, respectively, and the hill slope was fixed to 1. The IC50 represents the concentration of a compound that is required for inhibiting a biological effect by 50% (Here, it is the concentration where Aβ peptide level is reduced by 50%).

Aβtotal [2] = assay: Method 1: Aβtotal sandwich ELISA on media of SKNBE2 cells carrying APP 695 wild type; conditions: SKNBE2 cells APP 695 wild type, 18 hours
Method: as §1, §2
To quantify the amount of Aβtotal in the cell supernatant, samples and standards were added to a 6E10-coated plate. The plate was allowed to incubate overnight at 4° C. in order to allow formation of the antibody-amyloid complex. Following this incubation and subsequent wash steps a selective anti-AB-antibody conjugate (biotinylated 4G8) was added and incubated for a minimum of 1 hour in order to allow formation of the antibody-Amyloid-antibody-complex. After incubation and appropriate wash steps, a Streptavidine-Peroxidase-Conjugate was added, followed 30 minutes later by an addition of Quanta Blu fluorogenic peroxidase substrate according to the manufacturer's instructions (Pierce Corp., Rockford, Il).
as §3

Aβtotal [3] = assay: Method 2: Aβtotal Alphalisa on supernatant of SKNBE2 cells carrying APP 695 wild type; conditions: SKNBE2 cells APP 695 wild type, overnight
Method: as §1, with “Invitrogen” for “Gibco”, “10371-029)” for “31330-38)”, “acids, 1-glutamine 2 mM, Hepes 15 mM, penicillin 50 U/ml (units/ml) en streptomycin 50 μg/ml.” for “acids.”
(§4) The screening was performed using a modification of the assay as described in Citron et al (1997) Nature Medicine 3: 67. Briefly, cells were plated in a 384-well plate at 10^4 cells/well in Ultraculture (Lonza, BE12-725F) supplemented with 1% glutamine (Invitrogen, 25030-024), 1% non-essential amino acid (NEAA), penicillin 50 U/ml en streptomycin 50 μg/ml in the presence of test compound at different test concentrations. The cell/compound mixture was incubated overnight at 37° C., 5% CO2, The next day the media were assayed by two sandwich immuno-assays, for Aβ42 and Aβtotal.
(§5) Aβtotal and Aβ42 concentrations were quantified in the cell supernatant using the Aphalisa technology (Perkin Elmer). Alphalisa is a sandwich assay using biotinylated antibody attached to streptavidin coated donorbeads and antibody conjugated to acceptor beads. In the presence of antigen, the beads come into close proximity. The excitation of the donor beads provokes the release of singlet oxygen molecules that trigger a cascade of energy transfer in the acceptor beads, resulting in light emission. To quantify the amount of Aβ42 in the cell supernatant, monoclonal antibody specific to the C-terminus of Aβ42 (JRF/cAβ42/26) was coupled to the receptor beads and biotinylated antibody specific to the N-terminus of AB (JRF/AβN/25) was used to react with the donor beads. To quantify the amount of Aβtotal in the cell supernatant, monoclonal antibody specific to the N-terminus of AB (JRF/AβN/25) was coupled to the receptor beads and biotinylated antibody specific to the mid region of Aβ (biotinylated 4G8) was used to react with the donor beads.
(§6) To obtain the values reported in Table 3b, the data were calculated as percentage of the maximum amount of amyloid Beta 42 measured in the absence of the test compound. The sigmoidal dose response curves were analyzed using non-linear regression analysis with percentage of the control plotted against the log concentration of the compound. A 4-parameter equation was used to determine the IC50.

Aβ42 [4] = assay: Method 2: Aβ42 Alphalisa on supernatant of SKNBE2 cells carrying APP 695 wild type; conditions: SKNBE2 cells APP 695 wild type, overnight
Method: as §1, with “Invitrogen” for “Gibco”, “10371-029)” for “31330-38)”, “acids, 1-glutamine 2 mM, Hepes 15 mM, penicillin 50 U/ml (units/ml) en streptomycin 50 μg/ml.” for “acids.”
as §4, §5, §6

Structure (SMILES) | IC50 (Aβ42 [1]; Homo sapiens) [nM] | IC50 (Aβtotal [3]; Homo sapiens) [nM] | IC50 (Aβ42 [4]; Homo sapiens) [nM] | IC50 (Aβ42 [4]) [nM] | further results
CCCCn1cc2cccc(Nc3ccc(-n4cnc(C)c4)c(OC)c3)c2n1 [Compound 3, 2-butyl-N-[3-methoxy-4-(4-methyl-1H-imidazol-1-yl)phenyl]-2H-indazol-7-amine .2HCl] | 113 | > 3000 | < 3000 | – | IC50 (Aβtotal [2]; Homo sapiens): > 3000 nM
COc1cccc(-n2nc3c(Nc4ccc(-c5ocnc5C)nc4)cccc3c2C)c1 [Compound 4, 2-(3-methoxyphenyl)-3-methyl-N-[6-(4-methyl-5-oxazolyl)-3-pyridinyl]-2H-indazol-7-amine] | 55 | 4790 | 22 | – | IC50 (Aβtotal [2]; Homo sapiens): > 3000 nM
COc1cccc(-n2nc3c(Nc4ccc(-n5cnc(C)n5)c(OC)c4)cccc3c2C)c1 [Compound 5, N-[3-methoxy-4-(3-methyl-1H-1,2,4-triazol-1-yl)phenyl]-2-(3-methoxyphenyl)-3-methyl-2H-indazol-7-amine .1.9HCl] | 31 | 8130 | 18 | – | IC50 (Aβtotal [2]; Homo sapiens): > 3000 nM
CCCCn1nc2c(Nc3ccc(-n4cnc(C)c4)c(OC)c3)cccc2c1C [Compound 10, 2-butyl-N-[3-methoxy-4-(4-methyl-1H-imidazol-1-yl)phenyl]-3-methyl-2H-indazol-7-amine .2HCl] | – | – | – | < 3000 | IC50 (Aβ42 [1]): 99 nM; IC50 (Aβtotal [2]): > 3000 nM; IC50 (Aβtotal [3]): > 3000 nM
CCCCn1cc2cc(C#N)cc(Nc3ccc(-n4cnc(C)c4)c(OC)c3)c2n1 [Compound 11, 2-butyl-7-[[3-methoxy-4-(4-methyl-1H-imidazol-1-yl)phenyl]amino]-2H-indazole-5-carbonitrile .2HCl] | – | – | – | < 3000 | IC50 (Aβ42 [1]): 77 nM; IC50 (Aβtotal [2]): > 3000 nM; IC50 (Aβtotal [3]): > 3000 nM
CCCCn1cc2cc(CN)cc(Nc3ccc(-n4cnc(C)c4)c(OC)c3)c2n1 [Compound 12, 2-butyl-7-[[3-methoxy-4-(4-methyl-1H-imidazol-1-yl)phenyl]amino]-2H-indazole-5-methanamine .4HCl] | – | – | – | > 3000 | –
CCOc1cc(C)c(-n2nc3c(Nc4ccc(-n5cnc(C)c5)c(OC)c4)cccc3c2C)cc1C(C)C [Compound 14, 2-[4-ethoxy-2-methyl-5-(1-methylethyl)phenyl]-N-[3-methoxy-4-(4-methyl-1H-imidazol-1-yl)phenyl]-3-methyl-2H-indazol-7-amine] | 29 | 7080 | 20 | – | –
Cc1ncc(-c2ccc(Nc3cc(F)cc4c(C)n(-c5ccc(F)cc5)nc34)cn2)o1 [Compound 47, 5-fluoro-2-(4-fluorophenyl)-3-methyl-N-[6-(2-methyl-5-oxazolyl)-3-pyridinyl]-2H-indazol-7-amine] | – | 6920 | 35 | – | –
COc1cc(Nc2cccc3c(C)n(-c4ccc(F)cc4F)nc23)ccc1-c1cnc(C)s1 [Compound 50, 2-(2,4-difluorophenyl)-N-[3-methoxy-4-(2-methyl-5-thiazolyl)phenyl]-3-methyl-2H-indazol-7-amine] | 865 | > 10000 | 676 | – | –
Cc1cn(-c2ccc(Nc3cncc4cn(CC(F)(F)F)nc34)cc2F)cn1 [Compound 55, N-[3-fluoro-4-(4-methyl-1H-imidazol-1-yl)phenyl]-2-(2,2,2-trifluoroethyl)-2H-pyrazolo[4,3-c]pyridin-7-amine] | – | > 10000 | 603 | – | –
COc1cc(Nc2cc(C(C)C)nc3cn(CC(F)(F)F)nc23)ccc1-n1cnc(C)n1 [Compound 56, N-[3-methoxy-4-(3-methyl-1H-1,2,4-triazol-1-yl)phenyl]-5-(1-methylethyl)-2-(2,2,2-trifluoroethyl)-2H-pyrazolo[4,3-b]pyridin-7-amine] | – | > 10000 | 708 | – | –

Second part, led by results:

IC50 (Aβ42 [1]; Homo sapiens) [nM] | IC50 (Aβtotal [3]; Homo sapiens) [nM] | IC50 (Aβ42 [4]; Homo sapiens) [nM] | IC50 (Aβ42 [4]) [nM] | Structure (SMILES) | further results
1470 | > 3000 | < 3000 | – | COc1cc(Nc2cccc3cn(C)nc23)ccc1-n1cnc(C)c1 [Compound 9, N-[3-methoxy-4-(4-methyl-1H-imidazol-1-yl)phenyl]-2-methyl-2H-indazol-7-amine] | IC50 (Aβtotal [2]; Homo sapiens): > 10000 nM
– | – | – | 79 | COc1cc(Nc2cccc3cn(CC4CC4)nc23)ccc1-n1cnc(C)c1 [Compound 13, 2-(cyclopropylmethyl)-N-[3-methoxy-4-(4-methyl-1H-imidazol-1-yl)phenyl]-2H-indazol-7-amine .2HCl] | IC50 (Aβ42 [1]): 283 nM; IC50 (Aβtotal [2]): > 3000 nM; IC50 (Aβtotal [3]): > 10000 nM
– | > 3000 | > 3000 | – | COc1cc(Nc2cccc3cn(C)nc23)ccc1-n1cnc(C)n1 [Compound 17, N-[3-methoxy-4-(3-methyl-1H-1,2,4-triazol-1-yl)phenyl]-2-methyl-2H-indazol-7-amine] | –
– | – | – | > 3000 | Cc1ncc(-c2ccc(Nc3cccc4cn(C5CCC5)nc34)cc2)o1 [Compound 26, 2-cyclobutyl-N-[4-(2-methyl-5-oxazolyl)phenyl]-2H-indazol-7-amine .1.2HCl] | IC50 (Aβtotal [3]): > 3000 nM
– | – | – | > 3000 | COCCn1cc2cccc(Nc3ccc(-c4cnc(C)o4)cc3)c2n1 [Compound 27, 2-(2-methoxyethyl)-N-[4-(2-methyl-5-oxazolyl)phenyl]-2H-indazol-7-amine .1.5HCl .1.25H2O] | –
– | – | – | > 3000 | COCCn1cc2cccc(Nc3ccc(-c4ocnc4C)c(OC)c3)c2n1 [Compound 36, 2-(2-methoxyethyl)-N-[3-methoxy-4-(4-methyl-5-oxazolyl)phenyl]-2H-indazol-7-amine .1.5HCl .0.18H2O] | –
– | – | – | 1410 | Cc1ncc(-c2ccc(Nc3cccc4cn(CC5CC5)nc34)cn2)o1 [Compound 43, 2-(cyclopropylmethyl)-N-[6-(2-methyl-5-oxazolyl)-3-pyridinyl]-2H-indazol-7-amine .2HCl] | –
– | > 3000 | > 3000 | – | COc1cc(Nc2cccc3cn(C)nc23)ccc1-c1cnc(C)s1 [Compound 49, N-[3-methoxy-4-(2-methyl-5-thiazolyl)phenyl]-2-methyl-2H-indazol-7-amine] | –
– | – | – | 631 | COc1cccc(-n2nc3c(Nc4ccc(-c5ccnn5C)cc4)cccc3c2C)c1 [Compound 53, 2-(3-methoxyphenyl)-3-methyl-N-[4-(1-methyl-1H-pyrazol-5-yl)phenyl]-2H-indazol-7-amine .2HCl .0.5H2O] | IC50 (Aβtotal [3]): > 10000 nM
